Data set [1] relates to cryopreserved human hepatocytes (primary culture). Description: Hepatocyte viability (MTT test) on suspended cryopreserved human hepatocytes. As to conditions: 90 minutes incubation, relative to non treated cells. The class given is cell-based. The method, then: The hepatocyte viability corresponds to the percentage of surviving suspended human hepatocytes after 90 minutes of incubation with the compounds of the invention present at a concentration of […].
Hepatocyte viability was measured for different compounds according to the invention with cryopreserved human hepatocytes (primary culture) suspended and distributed in 96-well plates with a density of 0.1×10^6 cells per well, in a […] culture medium per well (DMEM+gentamycin (50 mg/L)+insulin (4 mg/L)+dexamethasone (1 μM)) in a CO2/air (5%/95%) humidified atmosphere at 37° C. After 30 minutes for attaining equilibrium, […] of culture medium containing the tested compounds (dissolved in DMSO) or of medium only containing DMSO (final concentration of 0.1%) were added with stirring at 900 rpm.
Cytotoxicity is evaluated with an MTT (Thiazolyl Blue Tetrazolium Bromide) test. The tested compounds or the DMSO are left to incubate for 90 minutes, and then 10 μL of MTT at 10 mg/10 mL are added per well for 30 mins. Next, the plates are centrifuged for 10 minutes at 2,000 g, the MTT is removed and some DMSO is added in an amount of 100 μL per well. The plates are gently shaked and then absorbance is measured at 595 nm by means of a spectrophotometric reader of micro-plates. The hepatocyte viability measured here corresponds to the percentage of surviving hepatocytes after 90 minutes of incubation with the compounds tested at a concentration of 100 μM, relatively to non treated cells.
The same tests were conducted for a concentration of compounds at 200 μM.
The tests were conducted in two distinct campaigns. In both cases, troglitazone (K) was used as a reference molecule.

The nature of data set [2]: Toxicity test on mice (maximum tolerated dose, intravenous injection). As to conditions: mouse, in vivo; female NMRI mice, intravenous injection into the tail vein, observed two weeks. As to the method:
(§1) A toxicity test was conducted on mice for the molecules D and E. These molecules therefore only differ by the substituted methyl group on thiazolidinedione. As a comparison, the test was also conducted by using Δ2TGZ. These analyses were conducted on female NMRI mice weighing 20-25 g. Groups of three mice were set up: a non-injected control batch, a batch receiving the solvent of the molecules to be tested (water PPI, polyethylene glycol 400, absolute ethanol mixture in proportions 5/3/2), three other batches receiving the molecules to be tested. The compounds were injected into the tail vein of mice anaesthetized beforehand. The animals were weighed before and then 24 hours and 48 hours after intravenous injection of the products at the different tested doses and then they were also weighed three times a week for two weeks. The behavior of the whole of the mice was observed before, and then one hour, two hours and three hours after the intravenous injection and then daily for two weeks. The compounds were first tested at the limit of their solubility.

The subject of a further data set is MCF7. Description: Antiproliferative activity (MTS) on MCF7. The class given is cell-based, human. As to conditions: Homo sapiens, MCF7, 72 hours; for inhibition at 10 µM: 10^-5 M, triplicate, read-out: percentage of inhibition of cell growth, MCF7; for IC50: averages of two independent values. The method, then:
(§2) Antiproliferative activity was measured for different compounds according to the invention by analysis of cytoxicity at 10^−5M on diverse cancer cell lines in DMSO in triplicate. For certain molecules and certain lines, the same procedure was used for determining the IC50 values (the required concentration in μM for inhibiting by half the proliferation of the cells), by conducting cytotoxicity tests at concentrations from 0.005 μM to 100 μM in duplicate. The procedure is the following. The cells of the relevant line are sown in the suitable medium (see Table III) added with L-glutamine, with 10% (v/v) of fetal calf serum, 100 IU of penicillin, 100 μg/mL of streptomycin and 1.5 μg/mL of fungizone and maintained under 5% of CO2 at 37° C. 96-well plates are sown with the required number of cells per well (see Table III) in 200 μL of medium. 24 hours later, the chemical compounds to be investigated, dissolved in DMSO, are added and the media are maintained for 72 hours under these conditions with a set final concentration in DMSO (1%). The controls received an equal volume of DMSO. The number of viable cells is measured at 490 nm with the MTS reagent (Promega, Madison Wis.). The IC50s are calculated as the concentrations of compounds inducing 50% inhibition of cell proliferation.
(§3) Tables IV and V below indicate the percentage of inhibition of cell growth, i.e. the percentage of dead cells after treatment with a compound dose of 10^−5 M. The tests were conducted in triplicate.

The next data set relates to HCT116. Description: Antiproliferative activity (MTS) on HCT116. The class given is cell-based. To be noted: Homo sapiens, HCT-116; 10^-5 M, 72 hours, triplicate; read-out: percentage of inhibition of cell growth, HCT116. As to the method:
as §2, §3

The subject of a further data set is MDA231. Description: Antiproliferative activity (MTS) on MDA231. To be noted: Homo sapiens, MDA-MB-231, 72 hours; for inhibition at 10 µM: 10^-5 M, triplicate, read-out: percentage of inhibition of cell growth, MDA231; for IC50: averages of two independent values. The class given is cell-based, human. The method, then:
as §2, §3

The next data set deals with MDA435. Description: Antiproliferative activity (MTS) on MDA435. The class given is cell-based. To be noted: Homo sapiens, 10^-5 M, 72 hours, triplicate, read-out: percentage of inhibition of cell growth, MDA435. The method, then:
as §2, §3

The test system of the next data set is Mia-PaCa. Description: Antiproliferative activity (MTS) on Mia-PaCa. The class given is cell-based. As to conditions: Homo sapiens, MIA PaCa-2, 72 hours; for inhibition at 10 µM: 10^-5 M, triplicate, read-out: percentage of inhibition of cell growth, Mia-PaCa; for IC50: averages of two independent values. As to the method:
as §2, §3

The subject of another data set is HepG2. Description: Antiproliferative activity (MTS) on HepG2. To be noted: Homo sapiens, 72 hours; for inhibition at 10 µM: 10^-5 M, triplicate, read-out: percentage of inhibition of cell growth, HepG2; for IC50: averages of two independent values. The class given is cell-based. The method, then: as §2, §3
The next data set has as its system PC3. Description: Antiproliferative activity (MTS) on PC3. The class given is cell-based. To be noted: Homo sapiens, PC-3; 10^-5 M, 72 hours, triplicate; read-out: percentage of inhibition of cell growth, PC3. The method, then:
as §2, §3

For the next data set, the system named is LNCaP. Description: Antiproliferative activity (MTS) on LNCaP. The class given is cell-based. To be noted: Homo sapiens, 72 hours; for inhibition at 10 µM: 10^-5 M, triplicate, read-out: percentage of inhibition of cell growth, LNCaP; for IC50: averages of two independent values. The method, then: as §2, §3
The test system of a further data set is female NMRI mice. Description: Toxicity test on mice (maximum tolerated dose, intravenous injection). As to conditions: mouse, in vivo, iv. As to the method:
as §1

Results on five molecules are retold here after patent publication US9522909B2, “Thiazolidinedione derivatives, preparation thereof and use thereof in cancer treatment” (UNIVERSITE DE LORRAINE, priority 2012, dated 2016).

The structures appear in SMILES notation. Counter-ions that a name gives are not always drawn.

For `Cc1c(C)c2c(c(C)c1CCCCCCN)CCC(C)(COc1ccc(/C=C3\SC(=O)NC3=O)cc1)O2` (racemic) [E, (±) 5-{4-[6-(6-amino-hexyl)-2,5,7,8-tetramethyl-chroman-2-ylmethoxy]-benzylidene}thiazolidine-2,4-dione trifluoroacetate], in data set [1] (Table I campaign), the “Hepatocyte viability % (100 μM)” value is recorded as 83%. In addition, the “Hepatocyte viability % (200 μM)” value in data set [1] (Table I campaign) was 80%. The molecule further gave an MTD at 2 weeks in data set [2] of 34 mg/kg. Moreover, the inhibition at 10 µM in the data set with MCF7 came out at 97%; with HCT116, 93%; with MDA231 it was 92%; with MDA435 it was 65%; with Mia-PaCa it was 94%; with HepG2 it was 87%. Also, the inhibition at 10 µM came out at 40% in the data set with PC3 and 53% in the data set on LNCaP. Also, the half-maximal inhibitory concentration (IC50) in the data set on MCF7 stood at 6.4 µM; with MDA231, 4.7 µM; in the data set on Mia-PaCa, 3.9 µM; in the data set on HepG2, 3.1 µM; in the data set on LNCaP, 5.1 µM.
Regarding `Cc1c(C)c2c(c(C)c1O)CCC(C)(COc1ccc(CC3SC(=O)NC3=O)cc1)O2` (stereo not drawn) [K, troglitazone, reference compound], the figures for the “Hepatocyte viability % (100 μM)” value in data set [1] (Table I campaign) and in [1] (Table II campaign) were 79% and 52%, respectively. Moreover, the “Hepatocyte viability % (200 μM)” value was determined as 30% in [1] (Table I campaign) and 22% in data set [1] (Table II campaign). The inhibition at 10 µM with MCF7 turned out to be 3%; in the data set on HCT116, 9%; in the data set on MDA231, 12%; with MDA435, 12%; in the data set with Mia-PaCa it was 2%; with HepG2 it was 14%. Also, the inhibition at 10 µM with PC3 came to 14%; with LNCaP, 17%.
As to `O=C1S/C(=C\c2ccc(O)cc2)C(=O)N1C/C=C/c1ccccc1` [Compound A, 5-(4-hydroxy-benzylidene)-3-(3-phenyl-allyl)-thiazolidine-2,4-dione], the “Hepatocyte viability % (100 μM)” value in data set [1] (Table I campaign) came to 89%. Also, the “Hepatocyte viability % (200 μM)” value in data set [1] (Table I campaign) is on record as 63%. The inhibition at 10 µM in the data set on MCF7 amounted to 65%; in the data set on HCT116, 83%; in the data set on MDA231, 91%; with MDA435 it was 82%; in the data set on Mia-PaCa it was 84%; in the data set with HepG2 it was 59%. The inhibition at 10 µM with PC3 is 43%; in the data set with LNCaP, 37%. For the same molecule, the IC50 with MCF7 worked out at 5.2 µM; in the data set on MDA231 it was 2.2 µM; in the data set on Mia-PaCa it was 4.8 µM; with HepG2 it was 10.1 µM; in the data set with LNCaP, 19.4 µM.
For `Cc1c(C)c2c(c(C)c1CCCCCCN)CCC(C)(COc1ccc(/C=C3\SC(=O)N(C)C3=O)cc1)O2` (racemic) [D, (±) 5-{4-[6-(6-amino-hexyl)-2,5,7,8-tetramethyl-chroman-2-ylmethoxy]-benzylidene}-3-methyl-thiazolidine-2,4-dione trifluoroacetate], the “Hepatocyte viability % (100 μM)” value in data set [1] (Table I campaign) came to 83%. In addition, the “Hepatocyte viability % (200 μM)” value in [1] (Table I campaign) is given as 83%. The molecule further had an MTD at 2 weeks in data set [2] of 65.5 mg/kg. The inhibition at 10 µM amounted to 101% in the data set with MCF7; 101% in the data set with HCT116; 101% in the data set with MDA231; 101% in the data set on MDA435; 103% with Mia-PaCa; 100% in the data set with HepG2. Moreover, the inhibition at 10 µM in the data set with PC3 came to 92%; with LNCaP it was 88%. Besides, the IC50 with MCF7 came to 6.9 µM; in the data set with MDA231 it was 4.6 µM; in the data set on Mia-PaCa, 3.2 µM; with HepG2, 7.9 µM; in the data set with LNCaP it was 6.5 µM.
For the molecule `Cc1c(C)c2c(c(C)c1O)CCC(C)(COc1ccc(C=C3SC(=O)NC3=O)cc1)O2` (stereo not drawn) [Δ2TGZ, reference compound], the maximum tolerated dose entry in the data set on female NMRI mice was “less than 34 mg/kg”.
